Test results reported in ChEMBL document CHEMBL1201862, “PubChem BioAssay data set” (2004).
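Five compound concentrations were applied to cells in 96-well plates for 48 hours; endpoints were derived by simple linear interpolation of the resulting dose-response curve. Abbreviation: GI50, concentration required for 50% inhibition of growth.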 Calls of active or inactive are those of the source. No stated cut-off is given here; in the data, active = GI50 up to about 1.1 µM and inactive = higher.

How the values were obtained:
Assay in all cases: inhibition of tumour cell growth, NCI panel, 48 h
786-0 = system: 786-0
A549 = system: A549
ACHN = system: ACHN
CAKI-1 = system: CAKI-1
CCRF-CEM = system: CCRF-CEM
COLO 205 = system: COLO 205
DLD-1 = system: DLD-1
DMS-114 = system: DMS-114
DMS-273 = system: DMS-273
EKVX = system: EKVX
HCC 2998 = system: HCC 2998
HCT-116 = system: HCT-116
HCT-15 = system: HCT-15
HL-60 = system: HL-60
HOP-18 = system: HOP-18
HOP-62 = system: HOP-62
HT-29 = system: HT-29
IGROV-1 = system: IGROV-1
K562 = system: K562
KM-20L2 = system: KM-20L2
KM12 = system: KM12
LOX IMVI = system: LOX IMVI
LXFL 529 = system: LXFL 529
M14 = system: M14
M19-MEL = system: M19-MEL
MOLT-4 = system: MOLT-4
Malme-3M = system: Malme-3M
NCI-H226 = system: NCI-H226
NCI-H23 = system: NCI-H23
NCI-H460 = system: NCI-H460
NCI-H522 = system: NCI-H522
OVCAR-3 = system: OVCAR-3
OVCAR-4 = system: OVCAR-4
OVCAR-5 = system: OVCAR-5
OVCAR-8 = system: OVCAR-8
RPMI-8226 = system: RPMI-8226
RXF 393 = system: RXF 393
RXF 631 = system: RXF 631
SF-268 = system: SF-268
SF-295 = system: SF-295
SF-539 = system: SF-539
SK-MEL-28 = system: SK-MEL-28
SK-MEL-2 = system: SK-MEL-2
SK-OV-3 = system: SK-OV-3
SN12C = system: SN12C
SNB-19 = system: SNB-19
SNB-78 = system: SNB-78
SR = system: SR
SW-620 = system: SW-620
TK-10 = system: TK-10
U-251 = system: U-251
UACC-257 = system: UACC-257
UACC-62 = system: UACC-62
UO-31 = system: UO-31
XF498 = system: XF498
A498 = system: A498
HOP-92 = system: HOP-92
SK-MEL-5 = system: SK-MEL-5
SNB-75 = system: SNB-75

Measured: GI50

Brc1ccc2c(c1)C1(c3cc(Br)ccc3-2)c2cc(Br)ccc2-c2ccc(Br)cc21
> 100 µM: HCT-15
inactive: 786-0 > 100 µM | A549 > 100 µM | ACHN > 100 µM | CAKI-1 > 100 µM | CCRF-CEM > 100 µM | COLO 205 > 100 µM | DLD-1 > 100 µM | DMS-114 > 100 µM | DMS-273 > 100 µM | EKVX > 100 µM | HCC 2998 > 100 µM | HCT-116 > 100 µM | HL-60 > 100 µM | HOP-18 > 100 µM | HOP-62 > 100 µM | HT-29 > 100 µM | IGROV-1 > 100 µM | K562 > 100 µM | KM-20L2 > 100 µM | KM12 > 100 µM | LOX IMVI > 100 µM | LXFL 529 > 100 µM | M14 > 100 µM | M19-MEL > 100 µM | MOLT-4 > 100 µM | Malme-3M > 100 µM | NCI-H226 > 100 µM | NCI-H23 > 100 µM | NCI-H460 > 100 µM | NCI-H522 > 100 µM | OVCAR-3 > 100 µM | OVCAR-4 > 100 µM | OVCAR-5 > 100 µM | OVCAR-8 > 100 µM | RPMI-8226 > 100 µM | RXF 393 > 100 µM | RXF 631 > 100 µM | SF-268 > 100 µM | SF-295 > 100 µM | SF-539 > 100 µM | SK-MEL-28 > 100 µM | SK-MEL-2 > 100 µM | SK-OV-3 > 100 µM | SN12C > 100 µM | SNB-19 > 100 µM | SNB-78 > 100 µM | SR > 100 µM | SW-620 > 100 µM | TK-10 > 100 µM | U-251 > 100 µM | UACC-257 > 100 µM | UACC-62 > 100 µM | UO-31 > 100 µM | XF498 > 100 µM

Cn1cnc([N+](=O)[O-])c1Sc1nc2cccnc2[nH]1
inactive: 786-0 > 100 µM | A498 > 100 µM | A549 90.2 µM | ACHN > 100 µM | CAKI-1 18.3 µM | CCRF-CEM 14.5 µM | COLO 205 17.8 µM | DLD-1 25.6 µM | DMS-114 24.8 µM | DMS-273 1.61 µM | EKVX 28.5 µM | HCC 2998 > 100 µM | HCT-116 90.6 µM | HL-60 12.5 µM | HOP-18 70.1 µM | HOP-62 > 100 µM | HOP-92 83 µM | HT-29 > 100 µM | IGROV-1 71.4 µM | K562 22.8 µM | KM-20L2 > 100 µM | KM12 54.1 µM | LOX IMVI 79.8 µM | LXFL 529 39.2 µM | M14 > 100 µM | MOLT-4 29.9 µM | Malme-3M > 100 µM | NCI-H226 > 100 µM | NCI-H23 88.7 µM | NCI-H460 > 100 µM | OVCAR-3 > 100 µM | OVCAR-4 41.1 µM | OVCAR-5 > 100 µM | OVCAR-8 86.5 µM | RPMI-8226 68.5 µM | RXF 393 97.5 µM | RXF 631 1.73 µM | SF-268 74.8 µM | SF-295 37.7 µM | SF-539 > 100 µM | SK-MEL-28 62.5 µM | SK-MEL-5 > 100 µM | SK-OV-3 > 100 µM | SN12C 40.3 µM | SNB-19 > 100 µM | SNB-75 > 100 µM | SNB-78 > 100 µM | SR 35.9 µM | SW-620 49.9 µM | TK-10 55.6 µM | U-251 > 100 µM | UACC-257 91.2 µM | UACC-62 67.6 µM | UO-31 89.7 µM | XF498 45.8 µM
> 100 µM: HCT-15
